Consider one molecule from ChEMBL document CHEMBL5696441 (Nat Chem Biol, 2011).

For assay [1], the target named is Serine/threonine-protein kinase MAK (Homo sapiens) (UniProt P20794). Put plainly: Inhibition of MAK (unknown origin) assessed as remaining activity at 1 uM by Kinome scan method relative to control.
For assay [2], the target named is Dual specificity tyrosine-phosphorylation-regulated kinase 4 (Homo sapiens) (UniProt Q9NR20). As to the kind of experiment: Inhibition of human DYRK4 assessed as residual activity at 1 uM using RBER-CHKtide as substrate in presence of 33P-ATP by ProQinase assay relative to control.
Assay [3] has as its target Mitogen-activated protein kinase 13 (Homo sapiens) (UniProt O15264). Put plainly: Inhibition of human p38delta assessed as residual activity at 1 uM using RBER-CHKtide as substrate in presence of 33P-ATP by ProQinase assay relative to control.
Assay [4] in a line: Anti-inflammatory activity against human derived medium respond PBMC cells assessed as inhibition in stimulated TARC chemokine release incubated for 2 hrs in the presence of LPS/SEB/aCD28 by Luminex based sandwich immunoassay. Format: functional, cell-based.
Assay [5] deals with Tyrosine-protein kinase Fer (Homo sapiens) (UniProt P16591). As to the kind of experiment: Inhibition of FER (unknown origin) assessed as remaining activity at 1 uM by Kinome scan method relative to control.
The target in assay [6] is Serine/threonine-protein kinase Sgk1 (Homo sapiens) (UniProt O00141). As to the kind of experiment: Inhibition of human SGK1 assessed as residual activity at 1 uM using RBER-GSK3(14-27) as substrate in presence of 33P-ATP by ProQinase assay relative to control.
For assay [7], the target named is NUAK family SNF1-like kinase 2 (Homo sapiens) (UniProt Q9H093). Put plainly: Inhibition of SNARK (unknown origin) assessed as remaining activity at 1 uM by Kinome scan method relative to control.
Assay [8] has as its target Casein kinase I isoform gamma-3 (Homo sapiens) (UniProt Q9Y6M4). Put plainly: Inhibition of CSNK1G3 (unknown origin) assessed as remaining activity at 1 uM by Kinome scan method relative to control.
Assay [9] addresses Protein kinase C theta type (Homo sapiens) (UniProt Q04759). Put plainly: Inhibition of human PKCtheta assessed as residual activity at 1 uM using 3xChocktide-PKC(19-31) as substrate in presence of 33P-ATP by ProQinase assay relative to control.
In assay [10] the target is Homeodomain-interacting protein kinase 1 (Homo sapiens) (UniProt Q86Z02). Put plainly: Inhibition of HIPK1 (unknown origin) assessed as remaining activity at 1 uM by Kinome scan method relative to control.
Chain of Homeodomain-interacting protein kinase 1 (Homo sapiens) (Q86Z02 whole entry, looked up): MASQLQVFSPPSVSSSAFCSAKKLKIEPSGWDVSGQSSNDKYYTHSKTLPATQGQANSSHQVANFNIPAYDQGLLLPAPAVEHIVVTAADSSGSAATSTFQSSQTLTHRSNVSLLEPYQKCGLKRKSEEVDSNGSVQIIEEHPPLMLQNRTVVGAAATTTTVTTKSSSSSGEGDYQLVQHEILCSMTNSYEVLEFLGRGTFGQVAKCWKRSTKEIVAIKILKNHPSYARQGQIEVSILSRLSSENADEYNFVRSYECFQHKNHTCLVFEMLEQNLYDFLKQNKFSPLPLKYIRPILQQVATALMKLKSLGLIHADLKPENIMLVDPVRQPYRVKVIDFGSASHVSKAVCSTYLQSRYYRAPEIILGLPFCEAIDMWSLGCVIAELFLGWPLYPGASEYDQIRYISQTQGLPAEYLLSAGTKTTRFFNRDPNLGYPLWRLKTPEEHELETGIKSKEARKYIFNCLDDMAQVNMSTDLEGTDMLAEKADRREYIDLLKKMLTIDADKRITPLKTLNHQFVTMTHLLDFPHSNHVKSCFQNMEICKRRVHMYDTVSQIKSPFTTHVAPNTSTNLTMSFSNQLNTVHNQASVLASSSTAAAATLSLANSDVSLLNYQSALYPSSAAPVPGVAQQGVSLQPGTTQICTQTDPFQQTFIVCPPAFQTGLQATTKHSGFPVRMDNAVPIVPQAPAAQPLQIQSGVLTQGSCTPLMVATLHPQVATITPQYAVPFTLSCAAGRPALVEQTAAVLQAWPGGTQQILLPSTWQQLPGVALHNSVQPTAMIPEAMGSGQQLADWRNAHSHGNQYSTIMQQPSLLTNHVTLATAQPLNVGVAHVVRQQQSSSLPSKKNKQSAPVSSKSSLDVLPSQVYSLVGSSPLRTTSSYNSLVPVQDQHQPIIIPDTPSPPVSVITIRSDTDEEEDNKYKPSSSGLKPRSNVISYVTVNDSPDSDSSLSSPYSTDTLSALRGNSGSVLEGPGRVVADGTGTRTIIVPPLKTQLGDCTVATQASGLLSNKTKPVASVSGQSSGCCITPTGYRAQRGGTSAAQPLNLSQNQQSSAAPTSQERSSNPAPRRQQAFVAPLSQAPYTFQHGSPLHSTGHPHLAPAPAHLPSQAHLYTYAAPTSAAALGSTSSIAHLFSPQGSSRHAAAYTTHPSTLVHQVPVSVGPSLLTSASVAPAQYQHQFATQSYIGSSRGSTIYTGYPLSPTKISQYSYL
For assay [11], the system named is Proto-oncogene tyrosine-protein kinase receptor Ret (Homo sapiens), P07949 [V804L]. Put plainly: Inhibition of human RET V804L mutant assessed as residual activity at 1 uM using polyEY as substrate in presence of 33P-ATP by ProQinase assay relative to control.
Assay [12] deals with Serine/threonine-protein kinase WNK2 (Homo sapiens) (UniProt Q9Y3S1). As to the kind of experiment: Inhibition of human WNK2 assessed as residual activity at 1 uM using RBER-CHKtide as substrate in presence of 33P-ATP by ProQinase assay relative to control.
Chain of Serine/threonine-protein kinase WNK2 (Homo sapiens) (Q9Y3S1 whole entry): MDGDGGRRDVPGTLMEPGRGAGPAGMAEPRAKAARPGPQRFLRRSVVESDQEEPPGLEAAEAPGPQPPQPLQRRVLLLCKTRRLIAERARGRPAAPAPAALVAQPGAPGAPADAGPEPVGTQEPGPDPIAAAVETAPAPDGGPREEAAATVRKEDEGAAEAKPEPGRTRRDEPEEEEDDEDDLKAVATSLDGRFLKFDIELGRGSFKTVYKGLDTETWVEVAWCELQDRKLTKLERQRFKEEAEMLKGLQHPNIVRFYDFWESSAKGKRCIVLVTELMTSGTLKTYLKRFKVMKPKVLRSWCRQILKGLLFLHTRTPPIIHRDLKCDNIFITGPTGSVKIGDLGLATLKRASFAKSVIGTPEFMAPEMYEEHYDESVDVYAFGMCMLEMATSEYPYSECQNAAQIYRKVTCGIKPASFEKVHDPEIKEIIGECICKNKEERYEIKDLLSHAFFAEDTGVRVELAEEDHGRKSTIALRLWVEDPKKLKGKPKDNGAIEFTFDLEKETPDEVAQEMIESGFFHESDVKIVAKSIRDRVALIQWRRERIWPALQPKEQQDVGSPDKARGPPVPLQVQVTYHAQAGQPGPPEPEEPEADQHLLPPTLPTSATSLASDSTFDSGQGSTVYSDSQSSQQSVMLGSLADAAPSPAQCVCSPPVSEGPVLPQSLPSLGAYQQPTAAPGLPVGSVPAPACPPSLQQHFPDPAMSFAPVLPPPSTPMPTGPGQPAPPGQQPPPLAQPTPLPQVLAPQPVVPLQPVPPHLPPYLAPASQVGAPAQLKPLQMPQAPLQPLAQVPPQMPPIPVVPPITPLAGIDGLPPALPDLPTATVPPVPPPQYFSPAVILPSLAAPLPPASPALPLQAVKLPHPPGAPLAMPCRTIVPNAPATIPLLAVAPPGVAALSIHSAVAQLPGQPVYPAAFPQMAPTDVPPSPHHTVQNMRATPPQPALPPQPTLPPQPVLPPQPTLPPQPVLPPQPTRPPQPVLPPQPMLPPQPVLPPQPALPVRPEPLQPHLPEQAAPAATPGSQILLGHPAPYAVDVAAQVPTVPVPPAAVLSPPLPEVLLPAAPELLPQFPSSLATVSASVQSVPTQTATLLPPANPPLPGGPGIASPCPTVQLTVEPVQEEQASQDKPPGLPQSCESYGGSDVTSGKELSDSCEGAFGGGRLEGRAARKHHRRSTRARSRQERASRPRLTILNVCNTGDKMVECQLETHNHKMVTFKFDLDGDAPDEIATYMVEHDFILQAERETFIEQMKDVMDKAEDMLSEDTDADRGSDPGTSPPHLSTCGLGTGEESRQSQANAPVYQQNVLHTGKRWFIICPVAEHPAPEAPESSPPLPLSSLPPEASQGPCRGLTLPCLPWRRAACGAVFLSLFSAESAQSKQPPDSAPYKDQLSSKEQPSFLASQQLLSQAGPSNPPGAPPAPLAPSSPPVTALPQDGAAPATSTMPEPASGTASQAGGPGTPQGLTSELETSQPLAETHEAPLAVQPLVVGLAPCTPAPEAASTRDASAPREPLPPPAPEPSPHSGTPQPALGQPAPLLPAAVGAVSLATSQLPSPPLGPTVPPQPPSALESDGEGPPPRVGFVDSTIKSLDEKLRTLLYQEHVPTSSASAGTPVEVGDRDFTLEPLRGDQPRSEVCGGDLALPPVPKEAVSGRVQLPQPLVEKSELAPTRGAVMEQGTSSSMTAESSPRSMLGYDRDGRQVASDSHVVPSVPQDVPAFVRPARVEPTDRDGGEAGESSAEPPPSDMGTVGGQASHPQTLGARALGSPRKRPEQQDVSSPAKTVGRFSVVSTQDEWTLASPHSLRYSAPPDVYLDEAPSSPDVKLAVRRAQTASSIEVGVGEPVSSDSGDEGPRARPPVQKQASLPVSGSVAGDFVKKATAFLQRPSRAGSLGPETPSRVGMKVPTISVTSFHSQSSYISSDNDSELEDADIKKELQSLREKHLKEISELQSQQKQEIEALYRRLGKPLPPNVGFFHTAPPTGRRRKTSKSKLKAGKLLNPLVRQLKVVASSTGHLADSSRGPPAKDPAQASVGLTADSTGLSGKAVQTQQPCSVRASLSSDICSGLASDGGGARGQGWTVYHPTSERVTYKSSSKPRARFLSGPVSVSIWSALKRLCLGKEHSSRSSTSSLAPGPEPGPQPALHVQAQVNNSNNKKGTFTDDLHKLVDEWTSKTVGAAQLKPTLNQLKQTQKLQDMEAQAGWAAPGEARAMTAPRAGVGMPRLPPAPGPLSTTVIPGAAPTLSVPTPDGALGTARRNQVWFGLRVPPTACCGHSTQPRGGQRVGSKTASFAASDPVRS
In assay [13] the test system is Hepatocyte growth factor receptor (Homo sapiens), P08581 [M1250T]. As to the kind of experiment: Inhibition of human MET M1250T mutant assessed as residual activity at 1 uM using poly(Ala,Glu,Lys,Tyr)6:2:5:1 as substrate in presence of 33P-ATP by ProQinase assay relative to control.
Assay [14] has as its system Mast/stem cell growth factor receptor Kit (Homo sapiens), P10721 [V559D]. Put plainly: Inhibition of KIT V559D mutant (unknown origin) assessed as remaining activity at 1 uM by Kinome scan method relative to control.
Assay [15] addresses T1, Calcium/calmodulin-dependent protein kinase type IV (Homo sapiens) (UniProt Q16566).
T1 sequence (whole entry): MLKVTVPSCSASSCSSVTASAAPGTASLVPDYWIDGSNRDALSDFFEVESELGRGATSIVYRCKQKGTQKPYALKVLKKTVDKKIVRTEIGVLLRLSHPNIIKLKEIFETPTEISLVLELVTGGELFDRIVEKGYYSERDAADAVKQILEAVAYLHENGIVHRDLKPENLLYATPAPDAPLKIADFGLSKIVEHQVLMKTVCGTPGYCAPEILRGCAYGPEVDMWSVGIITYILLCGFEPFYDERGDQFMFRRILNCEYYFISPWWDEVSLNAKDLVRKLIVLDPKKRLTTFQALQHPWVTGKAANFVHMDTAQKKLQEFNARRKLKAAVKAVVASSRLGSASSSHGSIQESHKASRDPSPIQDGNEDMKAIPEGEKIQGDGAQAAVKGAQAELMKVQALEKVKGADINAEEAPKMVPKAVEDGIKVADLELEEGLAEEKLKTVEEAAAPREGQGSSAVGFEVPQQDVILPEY
Put plainly: Inhibition of human CAMK4 assessed as residual activity at 1 uM using JUN as substrate in presence of 33P-ATP by ProQinase assay relative to control.

The target of assay [16] is Fibroblast growth factor receptor 4 (Homo sapiens) (UniProt P22455). As to the kind of experiment: Inhibition of FGFR4 (unknown origin) assessed as remaining activity at 1 uM by Kinome scan method relative to control.
Assay [17] concerns the target Ephrin type-A receptor 6 (Homo sapiens) (UniProt Q9UF33). As to the kind of experiment: Inhibition of EPHA6 (unknown origin) assessed as remaining activity at 1 uM by Kinome scan method relative to control.
Assay [18] concerns the target Serine/threonine-protein kinase Nek11 (Homo sapiens) (UniProt Q8NG66). As to the kind of experiment: Inhibition of human NEK11 assessed as residual activity at 1 uM using MBP as substrate in presence of 33P-ATP by ProQinase assay relative to control.
The target of assay [19] is Casein kinase I isoform epsilon (Homo sapiens) (UniProt P49674). Put plainly: Inhibition of human CK1epsilon assessed as residual activity at 1 uM using casein as substrate in presence of 33P-ATP by ProQinase assay relative to control.
In assay [20] the test system is Platelet-derived growth factor receptor alpha (Homo sapiens), P16234 [V561D]. As to the kind of experiment: Inhibition of human PDGFRalpha V561D mutant assessed as residual activity at 1 uM using PolyEY as substrate in presence of 33P-ATP by ProQinase assay relative to control.
In assay [21] the target is Serine/threonine-protein kinase PAK 1 (Homo sapiens) (UniProt Q13153). As to the kind of experiment: Inhibition of human PAK1 assessed as residual activity at 1 uM using bio-4xCHKT as substrate in presence of 33P-ATP by ProQinase assay relative to control.
Chain of Serine/threonine-protein kinase PAK 1 (Homo sapiens) (Q13153 whole entry): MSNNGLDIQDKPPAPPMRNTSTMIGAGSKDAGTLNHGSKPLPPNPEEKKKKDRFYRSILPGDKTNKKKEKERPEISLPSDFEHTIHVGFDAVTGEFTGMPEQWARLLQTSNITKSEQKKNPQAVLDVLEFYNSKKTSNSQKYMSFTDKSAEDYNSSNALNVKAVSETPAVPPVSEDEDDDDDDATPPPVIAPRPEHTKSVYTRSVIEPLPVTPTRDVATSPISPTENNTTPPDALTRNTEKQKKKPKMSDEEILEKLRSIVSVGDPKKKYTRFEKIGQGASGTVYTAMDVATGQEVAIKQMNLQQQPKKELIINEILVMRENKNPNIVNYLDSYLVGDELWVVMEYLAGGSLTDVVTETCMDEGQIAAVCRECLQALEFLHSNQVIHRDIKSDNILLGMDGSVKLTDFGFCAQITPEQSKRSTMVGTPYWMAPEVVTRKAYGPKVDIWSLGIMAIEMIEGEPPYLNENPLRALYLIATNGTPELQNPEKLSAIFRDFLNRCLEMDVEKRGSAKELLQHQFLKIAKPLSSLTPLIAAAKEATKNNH
For assay [22], the target named is Homeodomain-interacting protein kinase 1 (Homo sapiens) (UniProt Q86Z02). Put plainly: Inhibition of human HIPK1 assessed as residual activity at 1 uM using RBER-CHKtide as substrate in presence of 33P-ATP by ProQinase assay relative to control.
Assay [23] deals with Cyclin-dependent kinase 5/CDK5 activator 1 (Homo sapiens) (UniProt Q00535+Q15078). Put plainly: Inhibition of human CDK5/p35NCK assessed as residual activity at 1 uM using RBER-CHKtide as substrate in presence of 33P-ATP by ProQinase assay relative to control. Format: protein-complex assay.
Chain of Cyclin-dependent kinase 5/CDK5 activator 1 (Homo sapiens) (Q00535 whole entry): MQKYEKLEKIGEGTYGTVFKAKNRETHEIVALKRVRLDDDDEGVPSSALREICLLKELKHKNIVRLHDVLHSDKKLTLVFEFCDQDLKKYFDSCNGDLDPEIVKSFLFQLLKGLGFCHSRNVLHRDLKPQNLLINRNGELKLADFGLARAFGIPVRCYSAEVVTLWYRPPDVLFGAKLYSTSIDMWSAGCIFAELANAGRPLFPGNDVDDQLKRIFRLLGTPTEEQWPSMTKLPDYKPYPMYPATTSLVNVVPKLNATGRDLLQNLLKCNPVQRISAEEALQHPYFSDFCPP
Chain of Cyclin-dependent kinase 5/CDK5 activator 1 (Homo sapiens) (Q15078 99-307 partner limits assumed): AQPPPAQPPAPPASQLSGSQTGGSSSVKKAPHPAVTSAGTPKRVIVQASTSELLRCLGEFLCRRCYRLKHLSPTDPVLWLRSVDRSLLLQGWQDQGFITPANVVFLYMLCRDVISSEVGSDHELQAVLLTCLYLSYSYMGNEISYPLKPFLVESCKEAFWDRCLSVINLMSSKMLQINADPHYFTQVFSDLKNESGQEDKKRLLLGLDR
Assay [24] concerns the target Serine/threonine-protein kinase N2 (Homo sapiens) (UniProt Q16513). Put plainly: Inhibition of human PRK2 assessed as residual activity at 1 uM using RBER-CHKtide as substrate in presence of 33P-ATP by ProQinase assay relative to control.

Chain of Mitogen-activated protein kinase 13 (Homo sapiens) (O15264 whole entry): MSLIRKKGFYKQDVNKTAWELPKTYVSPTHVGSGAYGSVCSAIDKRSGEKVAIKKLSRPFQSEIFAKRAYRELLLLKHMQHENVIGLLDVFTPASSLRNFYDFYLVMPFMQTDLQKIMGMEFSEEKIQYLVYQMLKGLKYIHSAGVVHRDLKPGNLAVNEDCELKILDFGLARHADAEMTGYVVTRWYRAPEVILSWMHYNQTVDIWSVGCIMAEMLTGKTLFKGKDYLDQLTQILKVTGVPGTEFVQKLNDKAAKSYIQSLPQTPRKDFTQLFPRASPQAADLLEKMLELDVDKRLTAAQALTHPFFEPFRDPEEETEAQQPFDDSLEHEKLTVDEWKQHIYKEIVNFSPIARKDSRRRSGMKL

Turning to `O=C1c2ccc(Nc3ccc(F)cc3F)cc2CCc2ccc(OC[C@H](O)CO)cc21` [Skepinone-L], the Activity is 84% in assay [1]; 93% in [2]; 80% in [3]; 100% in assay [5]; 90% in [6]; 100% in assay [7]. In addition, the Activity was determined as 100% in assay [8]; 99% in assay [9]; 100% in assay [10]; 115% in assay [11]; 95% in assay [12]; 100% in assay [13]. For the same molecule, the Activity in assay [14] came out at 100%; in [15], 111%; in assay [16], 98%; in assay [17], 96%; in assay [18], 113%; in assay [19], 86%. For the same molecule, the Activity in [20] was found to be 91%; in assay [21], 100%; in [22], 98%; in assay [23], 90%; in assay [24], 95%. For the same molecule, the IC50 result in assay [4] is listed as “Not Active”.
